Structures are written as SMILES.

The subject of assay [1] is Col17A1. Put plainly: Induction of COL17A1 expression in HaCat cells (Western blotting). The class given is cell-based, human. To be noted: 48 hours. Here is the method:
HaCat cells (human epidermal keratinocyte strain) were seeded in 10% FBS-containing D-MEM medium in a 6-well plate at 1×10^5 cells per well, and apocynin was added to be 1-60 μM. After 48 hours of culturing, an anti-Col17A1 antibody was used as the primary antibody, and Western blotting was carried out. An anti-GAPDH antibody was used as the internal control. The 180 KDa band of Col17A1 and the internal control GAPDH band were quantified for their densities using an LAS-3000 luminescence image analyzer. […] HaCat cells (human epidermal keratinocyte strain) were seeded in 10% FBS-containing D-MEM medium in a 6-well plate at 1×10^5 cells per well, and ascorbic acid (Wako Pure Chemical Industries, Ltd.) was added to be 0.3-60 jag/ml. After 48 hours of culturing, an anti-Col17A1 antibody was used as the primary antibody, and Western blotting was carried out. An anti-β-tubulin antibody was used as the internal control. The 180 KDa band of Col17A1 and the internal control β-tubulin band were quantified for their densities using an LAS-3000 luminescence image analyzer. […] HaCat cells (human epidermal keratinocyte strain) were seeded in 10% FBS-containing D-MEM medium in a 6-well plate at 1×10^5 cells per well, and Marimastat (MMP inhibitor) was added to be 3 μM. After 48 hours of culturing, an anti-Col17A1 antibody was used as the primary antibody, and Western blotting was carried out. An anti-β-tubulin antibody was used as the internal control. The 180 KDa band of Col17A1 and the internal control β-tubulin band were quantified for their densities using an LAS-3000 luminescence image analyzer.

Assay [2] has as its system irradiated mice. The assay is described as follows: Application test on the back of irradiated mice. The assay is classed as in vivo, mouse. The note with it: 7-week-old male C57BL/6NCrSlc mice, 5 Gy, 10 mg/ml in DMSO 125 μl applied on the back once a day, 5 times. Here is the method: The hair on the lower back of 7-week-old male C57BL/6NCrSlc mice was removed. Sivelestat was dissolved in DMSO to be 10 mg/ml and 125 μl (=[…]) thereof was applied on the back of the sivelestat group mice. On the back of the control group mice, 125 μl of DMSO was applied. After application on the back, the skin of the two groups of mice (day 0) was irradiated with a low voltage radiation of 5 Gy using CABINET X-RAY SYSTEM (Faxitron X-ray Corporation). Up to day 4, the same medicinal agents described above were applied on the back once a day (for a total of 5 times), and weekly follow-ups were carried out after that.

Assay [3] relates to irradiated mice. Put plainly: Test of intradermal administration in irradiated mice. To be noted: 7-week-old male C57BL/6NCrSlc mice, 5 Gy, 5 mg/ml in DMSO 200 μl (1000 μg) intradermally once a day, 5 times. The assay is classed as in vivo, mouse. Here is the method:
The hair on the lower back of 7-week-old male C57BL/6NCrSlc mice was removed. Sivelestat was dissolved in DMSO to be 5 mg/ml and 200 μl (=1000 μg) thereof was administered intradermally on back of the sivelestat group mice. On the back of the control group mice, 200 μl of DMSO was administered intradermally. After intradermal administration, the skin of the two groups of mice (day 0) was irradiated with a low voltage radiation of 5 Gy using CABINET X-RAY SYSTEM (Faxitron X-ray corporation). Up to day 4, the same medicinal agents described above were intradermally administered on the back once a day (for a total of 5 times), and weekly follow-ups were carried out after that.

Assay [4] has as its system aged mice. Put plainly: Hair-increasing effect in aged mice (application on the back of the neck). The class given is in vivo, mouse. To be noted: 26-27-month-old female C57BL/6NCrSlc mice, 100 μl of 200 μM solution applied for 28 days, day 28. The procedure:
Apocynin (A727200; Tront Research Chemicals) was adjusted to the concentration of 20 mM with DMSO, and 200 LM apocynin solution (1% apocynin 20 mM, 49% water, 50% ethanol) was prepared as the solution to be applied on mice. As the control solution, 1% DMSO (Sigma Aldrich), 49% water, 50% ethanol was prepared. After an anesthetic procedure was performed on five 27-month-old and one 26-month-old female C57BL/6[…] mice, hair on the back of the neck was removed. The three mice in the control solution treatment group were applied with 100 μl of the control solution, and the apocynin solution treatment group with 100 μl of the 200 μM apocynin solution for 28 days. For the follow-ups, photo images of the representative first day (day 1) and the last day (day 28) are shown (FIG. 11).

In assay [5] the test system is aged mice. The assay is described as follows: Comparison of the hair-increasing effects of apocynin and minoxidil in aged mice. The class given is in vivo, mouse. To be noted: 17-month-old female C57BL/6NCrSIc mice, 100 μl of 200 μM solution applied for 28 days, day 14; comparator Ri-UP X5 PLUS (minoxidil 5 g/100 ml). The procedure:
Apocynin (A727200; Tront Research Chemicals) was adjusted to the concentration of 20 mM with DMSO, and 200 LM apocynin solution (1% apocynin 20 mM, 49% water, 50% ethanol) was prepared as the solution to be applied on mice. As the control solution, 1% DMSO (Sigma Aldrich), 49% water, 50% ethanol was prepared. For the minoxidil solution, Ri-UP X5 PLUS® (5 g/100 ml, Taisho Pharmaceutical Co., Ltd.) was used. After six 17-month-old female C57BL/6[…] mice were anesthetized by inhalation of isoflurane (Pfizer), the hair on the back of the neck was removed. The three mice in the minoxidil treatment group were applied with 100 μl of minoxidil, and the apocynin treatment group with 100 μl of the 200 μM apocynin solution for 28 days. For the follow-ups, photo images of the representative first day (day 1) and the last day (day 28) are shown (FIG. 12).

Turning to `CNC(=O)[C@@H](NC(=O)[C@H](CC(C)C)[C@H](O)C(=O)NO)C(C)(C)C` [Marimastat], in assay [1] (Marimastat 3 μM, β-tubulin internal control), the “Col17A1 expression (180 KDa band, Western blotting)” value (from here on “Col17A1 expression”) is “increase of Col17A1 was observed”.

In the case of `CC(C)(C)C(=O)Oc1ccc(S(=O)(=O)Nc2ccccc2C(=O)NCC(=O)[O-])cc1.O.O.O.O.[Na+]` [Sivelestat, Monosodium N-{2-[4-(2,2-dimethylpropanoyloxy)-phenylsulfonylamino]benzoyl}aminoacetate tetrahydrate], the “hair growth versus control group” value in assay [2] is “tendency to grow faster”; in assay [3] it was “tendency to grow more”. Moreover, the graying entry is given as “suppression of graying was seen” in assay [2] (14 weeks and 28 weeks); “suppression of graying was seen” in assay [3] (14 weeks and 28 weeks).

In the case of `COc1cc(C(C)=O)ccc1O` [apocynin], in assay [1] (apocynin 1-60 μM, GAPDH internal control), the “Col17A1 expression” value is “increase of Col17A1 was observed along with the increase of apocynin”. Also, in assay [4], the “hair growth effect versus control solution” value was “significant hair growth effect compared to the control group”. In assay [5], the “hair growth effect versus minoxidil” value is on record as “significant hair growth effect compared to the minoxidil-administered group”.

Consider `O=C1O[C@H]([C@@H](O)CO)C(O)=C1O` [ascorbic acid], for which the “Col17A1 expression” value in assay [1] (ascorbic acid 0.3-60 jag/ml, β-tubulin internal control) is on record as “increase of Col17A1 was observed along with the increase of ascorbic acid”.

For the origin of these results see patent publication US11298372B2, “Composition for ameliorating loss of hair and graying of hair, and use thereof” (National University Corporation Tokyo Medical and Dental …, priority 2016, dated 2022).
